The text below walks through data of patent EP4711356A1, “TETRAHYDROCARBAZOLE DERIVATIVE, PHARMACEUTICAL COMPOSITION, AND USE THEREOF” (Nain Biotech (Hangzhou) Co., Ltd., priority 2023, dated 2024).

Structures are written as SMILES. pIC50: −log10 of the molar value.

The test system of this experiment is HeLa cells. As to the kind of experiment: Cell-based pharmacodynamic assay (CellTiter-Glo proliferation inhibition), HeLa. The following applies: human cervical cancer HeLa cells; 72 hours incubation; CellTiter-Glo luminescence; read-out: IC50 against HeLa cells. How it is done:
Complete media such as RPMI 1640 (Gibco, A1049101), EMEM (ATCC, 30-2003), DMEM (Gibco, C11995500CP), McCoy's 5A (Gibco, 16600082), and F-12K (ATCC, 30-2004) were prepared by supplementing with varying concentrations of FBS (Biological Industries, 04-002-1A) and 1% Penicillin-Streptomycin (Gibco, 15140122) and was thoroughly mixed. Tumor cell lines including HeLa (ATCC, CCL-2; EMEM + 10% FBS), TOV-21G (Cobioer, CBP60292; 1:1 mixture of MCDB 105 and Medium 199 + 15% FBS), OVCAR-3 (ATCC, HTB-161; RPMI 1640 + 20% FBS + 0.01 mg/ml bovine insulin), SK-OV-3 (ATCC, HTB-77; McCoy's 5A + 10% FBS), A2780 (Cobioer, CBP60283; RPMI 1640 + 10% FBS), OC316 (Cobioer, CBP60620; RPMI 1640 + 10% FBS), HuH-7 (Cobioer, CBP60202; DMEM + 10% FBS), SNU-398 (ATCC, CRL-2233; RPMI 1640 + 10% FBS), NCI-H2286 (ATCC, CRL-5938; RPMI 1640 + 5% FBS), NCI-H82 (ATCC, HTB-175; RPMI 1640 + 10% FBS), A549 (ATCC, CCL-185; F-12K + 10% FBS), SK-MEL-3 (ATCC, HTB-69; McCoy's 5A + 15% FBS), PSN-1 (Cobioer, CBP61215; RPMI 1640 + 10% FBS), LoVo (ATCC, CCL-229; F-12K + 10% FBS), DLD-1 (ATCC, CCL-221; RPMI 1640 + 10% FBS), HCT-15 (ATCC, CCL-225; RPMI 1640 + 10% FBS), A498 (ATCC, HTB-44; EMEM + 10% FBS), LNCaP (ATCC, CRL-1740; RPMI 1640 + 10% FBS), SNU-1 (ATCC, CRL-5971; RPMI 1640 + 10% FBS), SCC-9 (Cobioer, CBP60428; DMEM/F12 (1:1) + 10% FBS + 0.5 mM sodium pyruvate + 400 ng/ml hydrocortisone), SU-DHL-5 (ATCC, CRL-2958; RPMI 1640 + 10% FBS), Toledo (ATCC, CRL-2631; RPMI 1640 + 10% FBS), and SJCRH30 (ATCC, CRL-2061; RPMI 1640 + 10% FBS) were thawed. Cells were passaged approximately twice, and those in good growth condition (typically passages 4-6) were selected for experiments. The medium was aspirated, and the cells were washed once with 0.25% trypsin (Invitrogen, 25200-072). The waste liquid was discarded, and 3 mL of fresh trypsin was added to the culture flask for digestion. When the cells began to detach, 9 mL of complete medium was added to neutralize the trypsin digestion, and the mixture was gently mixed. The cell suspension was transferred to a centrifuge tube using a pipette and centrifuged at 1000 rpm for 5 minutes. The supernatant was discarded, and 5 mL of medium was added to the centrifuge tube to gently resuspend the cells evenly. The cell concentration was adjusted to 1×10^4/mL-3×10^4/mL using a cell counter (Beckman Coulter, Vi-cellTM XR). The cell suspension was added to a 96-well plate (Corning, 3903) at 100 µL/well. The plate was labeled with details such as cell name, seeding density, and date, and then placed in a CO2 incubator (Thermo, Thermo 3111) overnight. Test compounds were prepared as 20 mM stock solutions in DMSO (Sigma, D4540-1L) and added to the corresponding cell wells using an HPD300 automated dispenser according to the designed layout. The plates were incubated in a 37°C, 5% CO2 incubator for 72 hours. CellTiter-Glo Buffer was thawed at room temperature. The lyophilized CellTiter-Glo substrate was equilibrated to room temperature. The CellTiter-Glo Buffer was added to the CellTiter-Glo substrate and thoroughly mixed. The cell plates were removed and equilibrated to room temperature, and 50 µL of the mixed CellTiter-Glo reagent was added to each well. The plates were protected from light and shaken for 10 minutes, followed by incubation for 10 minutes. The plates were placed in an Enspire reader (luminescence measurement time: 0.5 s) to record luminescence results. The inhibition rate was calculated using the following formula: Inhibition rate (%) = (1 - (RLU_compound - RLU_blank) / (RLU_DMSO - RLU_blank)) × 100%. Dose-response curves were plotted using XLFit to calculate IC50 values. A four-parameter model was used: [fit = (A + ((B - A) / (1 + ((C/x) ^ D)))]. The test results for HeLa cells are shown in Table 1. Table 1: IC50 values of some test compounds against human cervical cancer HeLa cells
(In general: ATP-based viability assays read luminescence as a measure of living cells.)

The pIC50 is −log10 of the IC50, conventionally taken in molar units.

Consider `O=C1CCCc2c1[nH]c1cccc(C(=O)OC3CCNC3)c21` (racemic) [Compound B27], for which the pIC50 was no less than 6.30.

For `C#CC(C)OC(=O)c1cccc2[nH]c3c(c12)CCCC3=O` (racemic) [Compound B36], the pIC50 is no less than 6.70.

In the case of `CC(OC(=O)c1cccc2[nH]c3c(c12)CCCC3=O)C(=O)N(C)C` (racemic) [Compound B37], the pIC50 was no less than 6.00.

As for `CC(OC(=O)c1cccc2[nH]c3c(c12)CCCC3=O)C(F)(F)F` (racemic) [Compound B44], the pIC50 was no less than 6.70.

For `CCCCNC1CCc2c([nH]c3cccc(C(=O)OCC)c23)C1=O` (racemic) [Compound B103], the pIC50 is no less than 6.70.

Regarding `CCC#CC(C)OC(=O)c1cccc2[nH]c3c(c12)CCCC3=O` (racemic) [Compound B110], the pIC50 is no less than 6.70.

For the compound `C#CCOCC(C)OC(=O)c1cccc2[nH]c3c(c12)CCCC3=O` (racemic) [Compound B111], the pIC50 was no less than 6.70.

On to `C#CCC(C)OC(=O)c1cccc2[nH]c3c(c12)CCCC3=O` (racemic) [Compound B114], for which the pIC50 is no less than 6.70.

On to `CCOC(=O)c1cccc2[nH]c3c(c12)CCC(NCCO)C3=O` (racemic) [Compound B131], for which the pIC50 was no less than 6.30.

Consider `CCOC(=O)c1cccc2[nH]c3c(c12)CCC(N1CCC1)C3=O` (racemic) [Compound B132], for which the pIC50 was no less than 6.30.

As to `O=C1CCCc2c1[nH]c1cccc(C(=O)OC3CCC34CC4)c21` (racemic) [Compound B136], the pIC50 is no less than 6.70.

Consider `O=C1CCCc2c1[nH]c1cccc(C(=O)OC3CCOC3)c21` (racemic) [Compound B137], for which the pIC50 was no less than 6.70.

On to `CCC(OC(=O)c1cccc2[nH]c3c(c12)CCCC3=O)C1CC1` (racemic) [Compound B138], for which the pIC50 is no less than 6.30.

`CC(O)CCCOC(=O)c1cccc2[nH]c3c(c12)CCCC3=O` (racemic) [Compound B142]: the pIC50 is no less than 6.70.

As for `CCOC(=O)c1cccc2c1c1c(n2C(=O)C2(C)CC2(F)F)C(=O)CCC1` (racemic) [Compound C28], the pIC50 is no less than 6.70.

In the case of `CCOC(=O)c1cccc2c1c1c(n2C(=O)C2CCCCN2C)C(=O)CCC1` (racemic) [Compound C33], the pIC50 is no less than 6.70.

For `CCOC(=O)c1cccc2c1c1c(n2C(=O)C2CCOC(C)(C)C2)C(=O)CCC1` (racemic) [Compound C37], the pIC50 was no less than 6.70.

On to `CCOC(=O)c1cccc2c1c1c(n2C(=O)C(CO)c2ccccc2)C(=O)CCC1` (racemic) [Compound C48], for which the pIC50 was no less than 6.70.

`Cc1ccc2[nH]c3c(c2c1)CCCC3=NCC(O)CO` (racemic) [Compound E01]: the pIC50 was no less than 6.30.

`Cc1ccc2[nH]c3c(c2c1)CCCC3=NC(CO)C(C)C` (racemic) [Compound E02]: the pIC50 is no less than 6.30.

As to `CCC(CO)N=C1CCCc2c1[nH]c1cccc(C(=O)OC)c21` (racemic) [Compound E58], the pIC50 is no less than 6.70.

For `COC(=O)c1cccc2[nH]c3c(c12)CCCC3=NCC(O)CO` (racemic) [Compound E59], the negative-log IC50 (pIC50) is no less than 6.70.

Take `COC(=O)c1cccc2[nH]c3c(c12)CCCC3=NC(CO)C(C)C` (racemic) [Compound E60]: the pIC50 was no less than 6.70.

Turning to `Cc1ccc2[nH]c3c(c2c1)C(C)CCC3=NCCO` (single isomer, unassigned) [Compound E41], the pIC50 is no less than 6.30.

On to `Cc1ccc2[nH]c3c(c2n1)CCCC3=O` [Compound B01], for which the pIC50 is no less than 6.70.

Regarding `COc1ccc2[nH]c3c(c2n1)CCCC3=O` [Compound B09], the pIC50 is no less than 6.70.

On to `COC(=O)c1cccc2[nH]c3c(c12)CCCC3=O` [Compound B10], for which the pIC50 is no less than 6.70.

Take `Cc1ccc2[nH]c3c(c2c1)CCC1(CC1)C3=O` [Compound B14]: the pIC50 is no more than 5.30.

For `[2H]C([2H])([2H])c1ccc2[nH]c3c(c2c1)CCCC3=O` [Compound B15], the pIC50 is no less than 6.70.

Turning to `CC(C)OC(=O)c1cccc2[nH]c3c(c12)CCCC3=O` [Compound B17], the pIC50 was no less than 6.70.

`COC(=O)c1ccc(F)c2[nH]c3c(c12)CCCC3=O` [Compound B18]: the pIC50 is no less than 6.30.

Regarding `O=C1CCCc2c1[nH]c1cccc(N3CCn4cnnc4C3)c21` [Compound B19], the pIC50 was no less than 6.70.

Consider `CC1(C)CCN(c2cccc3[nH]c4c(c23)CCCC4=O)C1` [Compound B23], for which the pIC50 is no less than 6.70.

With `CC(C)(O)C1CN(c2cccc3[nH]c4c(c23)CCCC4=O)C1` [Compound B24], the pIC50 was no less than 6.70.

`CCCCOC(=O)c1cccc2[nH]c3c(c12)CCCC3=O` [Compound B25]: the pIC50 was no less than 6.70.

`O=C1CCCc2c1[nH]c1cccc(C(=O)OC3CC3)c21` [Compound B26]: the pIC50 was no less than 6.70.

With `O=C1CCCc2c1[nH]c1cccc(C(=O)OC3CCOCC3)c21` [Compound B30], the pIC50 is no less than 6.70.

For `O=C1CCCc2c1[nH]c1cccc(C(=O)OCCO)c21` [Compound B31], the pIC50 was no less than 6.70.

Regarding `CCC(=O)Oc1cccc2[nH]c3c(c12)CCCC3=O` [Compound B32], the pIC50 was no less than 6.30.

In the case of `CC(C)C(=O)Oc1cccc2[nH]c3c(c12)CCCC3=O` [Compound B33], the pIC50 was no less than 6.70.

`O=C1CCCc2c1[nH]c1cccc(C(=O)OCc3ccccc3)c21` [Compound B34]: the pIC50 was no less than 6.30.

As for `COCCOC(=O)c1cccc2[nH]c3c(c12)CCCC3=O` [Compound B38], the pIC50 is no less than 6.70.

Turning to `O=C1CCCc2c1[nH]c1cccc(C(=O)Oc3ccccc3)c21` [Compound B39], the pIC50 was no less than 6.30.

On to `CC(C)(C)COC(=O)c1cccc2[nH]c3c(c12)CCCC3=O` [Compound B40], for which the pIC50 was no less than 6.70.

On to `O=C1CCCc2c1[nH]c1cccc(C(=O)OCC3CC3)c21` [Compound B41], for which the pIC50 was no less than 6.70.

In the case of `O=C1CCCc2c1[nH]c1cccc(C(=O)OC(CF)CF)c21` [Compound B42], the pIC50 was no less than 6.70.

As for `O=C1CCCc2c1[nH]c1cccc(C(=O)OCc3ccc(F)cc3)c21` [Compound B43], the pIC50 is no less than 6.30.

As to `O=C1CCCc2c1[nH]c1cccc(C(=O)OCCC(F)(F)F)c21` [Compound B45], the pIC50 was no less than 6.70.

In the case of `O=C1CCCc2c1[nH]c1cccc(C(=O)OCC(F)(F)F)c21` [Compound B46], the pIC50 was no less than 6.70.

Turning to `O=C1CCCc2c1[nH]c1cccc(-c3ccccc3)c21` [Compound B48], the pIC50 was no less than 6.30.

Consider `O=C1CCCc2c1[nH]c1cccc(-c3cnc4[nH]ncc4c3)c21` [Compound B50], for which the pIC50 was no less than 6.70.

`COC(=O)c1cccc2[nH]c3c(c12)CCC3=O` [Compound B51]: the pIC50 is no less than 6.70.

Take `CC(C)(C)OC(=O)c1cccc2[nH]c3c(c12)CCCC3=O` [Compound B55]: the pIC50 was no less than 6.70.
